The supplement of paper PMC10733146

Experiments:
Assay in all cases: viability relative to DMSO control (fraction); higher = less drug effect (more viable cells)
Conditions in all cases: 48 h
[1] = tested on: primary AML patient cells (S081)
How it was run: (§1)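 Cells were incubated for 48 h at 37 °C and 5% CO2 in RPMI-1640 with penicillin/streptomycin, L-glutamine and human serum, at 4 × 10^4 cells per well in 384-well plates with compounds pre-plated at five concentrations, one well each. These were primary mononuclear tumour cells, fresh or cryopreserved, Ficoll-isolated from blood or bone marrow or obtained from processed lymph node. Viability values are CellTiter-Glo luminescence relative to the median of 16 inner DMSO wells.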

[2] = tested on: primary FL patient cells (S087)
How it was run: as §1

[3] = tested on: primary AML patient cells (S012)
How it was run: as §1

[4] = tested on: primary MCL patient cells (S053)
How it was run: as §1

[5] = tested on: primary AML patient cells (S019)
How it was run: as §1

[6] = tested on: primary BL patient cells (S005)
How it was run: as §1

[7] = tested on: primary AML patient cells (S002)
How it was run: as §1

[8] = tested on: primary AML patient cells (S011)
How it was run: as §1

[9] = tested on: primary AML patient cells (S037)
How it was run: as §1

[10] = tested on: primary MCL patient cells (S068)
How it was run: as §1

[11] = tested on: primary AML patient cells (S025)
How it was run: as §1

[12] = tested on: primary AML patient cells (S091)
How it was run: as §1

[13] = tested on: primary AML patient cells (S009)
How it was run: as §1

[14] = tested on: primary AML patient cells (S085)
How it was run: as §1

[15] = tested on: primary MCL patient cells (S041)
How it was run: as §1

[16] = tested on: primary AML patient cells (S021)
How it was run: as §1

[17] = tested on: primary FL patient cells (S022)
How it was run: as §1

[18] = tested on: primary B-PLL patient cells (S016)
How it was run: as §1

[19] = tested on: primary AML patient cells (S017)
How it was run: as §1

[20] = tested on: primary T-PLL patient cells (S008)
How it was run: as §1

For `CC(C)C[C@H](NC(=O)CNC(=O)c1cc(Cl)ccc1Cl)B(O)O` [Ixazomib], the viability ([1]; 0.008 µM) was 0.987, the viability ([1]; 0.04 µM) was 0.96 and the viability ([1]; 0.2 µM) was 0.901. For the same compound, the viability ([1]; 1 µM) was 0.95, the viability ([1]; 5 µM) was 0.981 and the viability ([2]; 0.008 µM) was 0.91. The viability ([2]; 0.04 µM) was 0.975, the viability ([2]; 0.2 µM) was 0.978 and the viability ([2]; 1 µM) was 0.96. For the same compound, the viability ([2]; 5 µM) was 0.982, the viability ([3]; 0.008 µM) was 0.975 and the viability ([3]; 0.04 µM) was 0.971. It also gave a viability ([3]; 0.2 µM) of 1.1, a viability ([3]; 1 µM) of 1.01 and a viability ([3]; 5 µM) of 0.978. It also gave a viability ([4]; 0.008 µM) of 0.872, a viability ([4]; 0.04 µM) of 0.954 and a viability ([4]; 0.2 µM) of 0.945. The viability ([4]; 1 µM) was 0.972, the viability ([4]; 5 µM) was 0.883 and the viability ([5]; 0.008 µM) was 0.525. For the same compound, the viability ([5]; 0.04 µM) was 0.757, the viability ([5]; 0.2 µM) was 0.633 and the viability ([5]; 1 µM) was 0.786. The viability ([5]; 5 µM) was 0.936, the viability ([6]; 0.008 µM) was 1.61 and the viability ([6]; 0.04 µM) was 0.944. The viability ([6]; 0.2 µM) was 1.56, the viability ([6]; 1 µM) was 0.939 and the viability ([6]; 5 µM) was 0.945. The viability ([7]; 0.008 µM) was 0.843, the viability ([7]; 0.04 µM) was 0.979 and the viability ([7]; 0.2 µM) was 0.932. For the same compound, the viability ([7]; 1 µM) was 0.972, the viability ([7]; 5 µM) was 0.933 and the viability ([8]; 0.008 µM) was 0.957. The viability ([8]; 0.04 µM) was 1.15, the viability ([8]; 0.2 µM) was 0.891 and the viability ([8]; 1 µM) was 1.06. It also gave a viability ([8]; 5 µM) of 1.03, a viability ([9]; 0.008 µM) of 0.982 and a viability ([9]; 0.04 µM) of 0.955. It also gave a viability ([9]; 0.2 µM) of 0.939, a viability ([9]; 1 µM) of 0.937 and a viability ([9]; 5 µM) of 0.955. It also gave a viability ([10]; 0.008 µM) of 0.998, a viability ([10]; 0.04 µM) of 0.9 and a viability ([10]; 0.2 µM) of 1.04. The viability ([10]; 1 µM) was 1.04, the viability ([10]; 5 µM) was 1.05 and the viability ([11]; 0.008 µM) was 0.932. For the same compound, the viability ([11]; 0.04 µM) was 0.95, the viability ([11]; 0.2 µM) was 0.952 and the viability ([11]; 1 µM) was 1.02. For the same compound, the viability ([11]; 5 µM) was 1.08, the viability ([12]; 0.008 µM) was 1.07 and the viability ([12]; 0.04 µM) was 0.874. The viability ([12]; 0.2 µM) was 1.13, the viability ([12]; 1 µM) was 0.811 and the viability ([12]; 5 µM) was 0.8. For the same compound, the viability ([13]; 0.008 µM) was 1.09, the viability ([13]; 0.04 µM) was 0.981 and the viability ([13]; 0.2 µM) was 1.08. The viability ([13]; 1 µM) was 1.03, the viability ([13]; 5 µM) was 1.09 and the viability ([14]; 0.008 µM) was 0.842. For the same compound, the viability ([14]; 0.04 µM) was 0.977, the viability ([14]; 0.2 µM) was 0.807 and the viability ([14]; 1 µM) was 0.911. It also gave a viability ([14]; 5 µM) of 1.08, a viability ([15]; 0.008 µM) of 0.87 and a viability ([15]; 0.04 µM) of 0.97. For the same compound, the viability ([15]; 0.2 µM) was 0.934, the viability ([15]; 1 µM) was 1.04 and the viability ([15]; 5 µM) was 1.05. It also gave a viability ([16]; 0.008 µM) of 0.927, a viability ([16]; 0.04 µM) of 1 and a viability ([16]; 0.2 µM) of 0.983. It also gave a viability ([16]; 1 µM) of 1.14, a viability ([16]; 5 µM) of 1.09 and a viability ([17]; 0.008 µM) of 0.894. For the same compound, the viability ([17]; 0.04 µM) was 1, the viability ([17]; 0.2 µM) was 0.954 and the viability ([17]; 1 µM) was 0.999. The viability ([17]; 5 µM) was 0.979, the viability ([18]; 0.008 µM) was 0.929 and the viability ([18]; 0.04 µM) was 0.946. It also gave a viability ([18]; 0.2 µM) of 0.987, a viability ([18]; 1 µM) of 1 and a viability ([18]; 5 µM) of 0.913. For the same compound, the viability ([19]; 0.008 µM) was 0.923, the viability ([19]; 0.04 µM) was 0.963 and the viability ([19]; 0.2 µM) was 0.834. The viability ([19]; 1 µM) was 0.942, the viability ([19]; 5 µM) was 0.979 and the viability ([20]; 0.008 µM) was 0.924. It also gave a viability ([20]; 0.04 µM) of 1.01, a viability ([20]; 0.2 µM) of 1.09 and a viability ([20]; 1 µM) of 1.01. For the same compound, the viability ([20]; 5 µM) was 0.961.
